According to ChEMBL document CHEMBL1138636, “Potent inhibitors of the HIV-1 protease incorporating cyclic urea P1-P2 scaffold” (Bioorg Med Chem Lett, 2004):

Molecular target: Human immunodeficiency virus type 1 protease (Human immunodeficiency virus 1, UniProt Q72874)
Experiment: Potency to inhibit HIV-1 protease

SMILES	Ki
Cc1cc(CN2CC(Cc3ccccc3)N(C[C@@H](O)C[C@@H](Cc3ccccc3)C(=O)NC3c4ccccc4C[C@H]3O)C2=O)cc(C)c1C (stereo not given in full)	100 nM
O=C(NC1c2ccccc2C[C@H]1O)[C@H](Cc1ccccc1)C[C@H](O)CN1C(=O)N(Cc2cccc(F)c2)CC1Cc1ccccc1 (stereo not given in full)	3.2 nM
O=C(NC1c2ccccc2C[C@H]1O)[C@H](Cc1ccccc1)C[C@H](O)CN1C(=O)N(Cc2ccncc2)CC1Cc1ccccc1 (stereo not given in full)	190 nM
CS(=O)(=O)c1ccc(CN2CC(Cc3ccccc3)N(C[C@@H](O)C[C@@H](Cc3ccccc3)C(=O)NC3c4ccccc4C[C@H]3O)C2=O)cc1 (stereo not given in full)	300 nM
O=C(NC1c2ccccc2C[C@H]1O)[C@H](Cc1ccccc1)C[C@H](O)CN1C(=O)N(Cc2ccccc2)CC1Cc1ccccc1 (stereo not given in full)	1.2 nM
O=C(NC1c2ccccc2C[C@H]1O)[C@H](Cc1ccccc1)C[C@H](O)CN1C(=O)N(Cc2ccccn2)CC1Cc1ccccc1 (stereo not given in full)	41 nM
O=C(NC1c2ccccc2C[C@H]1O)[C@H](Cc1ccccc1)C[C@H](O)CN1C(=O)N(Cc2cccnc2)CC1Cc1ccccc1 (stereo not given in full)	18 nM
COc1ccc(CN2CC(Cc3ccccc3)N(C[C@@H](O)C[C@@H](Cc3ccccc3)C(=O)NC3c4ccccc4C[C@H]3O)C2=O)cc1 (stereo not given in full)	5.6 nM
C[C@]1(Cc2ccccc2)C[C@H](Cc2ccccc2)N(C[C@@H](O)C[C@@H](Cc2ccccc2)C(=O)N[C@H]2c3ccccc3C[C@H]2O)C1=O	170 nM
O=C(NC1c2ccccc2C[C@H]1O)[C@H](Cc1ccccc1)C[C@H](O)CN1C(=O)[C@@H](Cc2ccccc2)CC1Cc1ccccc1 (stereo not given in full)	0.06 nM
